The values below come from patent US20200306295A1, “METHOD AND DEVICE FOR ANNIHILATION OF Staphylococcus aureus” (priority 2017, published 2020).

In experiment [1] the test system is MRSA NRS384 (MRSA USA 300). Nature of the experiment: MIC by standard broth-dilution method. The experiment is classed as cell-based, S. aureus. From the text:
For each measurement, three independent replicates were applied.

The test system of experiment [2] is stationary-phase MRSA. Format: cell-based, S. aureus. The conditions noted are these: for fold reduction of lowest concentration completely inhibiting MRSA growth within 18 hours, with laser treatment: 16 min laser stated for tetracycline, 2-fold or larger is synergy (FICI). How it is done:
To monitor the response of bacteria to laser treatment alone, antibiotic treatment alone, or their combinations, bacterial growth was continuously monitored overnight (18 hours with an interval of 30 min at 37° C.) by measuring optical density at 600 nm (OD600). Depending on the specific assay applied, the bacterial cells were suspended in 100 or 200 μl TSB medium under different treatment schemes (antibiotic alone, laser treatment alone, antibiotic plus laser treatment) with a final concentration of ˜10^5 CFU/ml. Bacterial growth was defined as OD600≥0.1.
Stationary-phase bacterial cells was washed and resuspended in 1×PBS at its original concentration. […] The treated droplet was collected and resuspended into 5 ml TSB (1:1000 dilution) for each group. Corresponding groups without laser treatment were also conducted for comparison. The bacterial suspensions were transferred to a 96-well plate with antibiotics supplemented into with the first row of the 96-well plate for eight two-fold serial dilution starting at a desired antibiotic concentration (e.g. ofloxacin: 2 μg/ml). After serial dilution, bacterial growth within the same well plate was monitored by a plate reader for 18 hours (OD600, 37° C.). The checkerboard assay was used for groups with laser treatment alone or laser plus antibiotic treatment. Two independent experiments of checkerboard assay were performed for each antibiotic with or without laser treatment. Based on the readout of OD600, a heat map was created to evaluate the antibiotic potentiation or synergistic effect enabled by STX photolysis.
Based on the checkerboard results, the fractional inhibitory concentration index (FICI), a synergy evaluation method between two antibiotics, was calculated as below: FICI=MIC of antibiotic A in combination/MIC of antibiotic A alone+MIC of antibiotic B in combination/MIC of antibiotic B alone. The interaction of the two antibiotics was defined as below: synergy if FICI≤0.5, no interaction if 0.5<FICI≤4, antagonism if FICI>4^46. […] Considering this reason, the synergy calculation was simplified as below: FICI=MIC of antibiotic A in combination with laser treatment/MIC of antibiotic A alone with synergy defined by FICI≤0.5.

The subject of a further experiment is MRSA. In words: microbe, parasite or virus in culture. The conditions noted are these: for MIC: Staphylococcus aureus, MRSA; for resistance development with laser treatment: 48-day serial passage, sub-MIC antibiotic with 10 min laser. Format: cell-based, S. aureus. The protocol:
To understand whether laser treatment could cause genotypic or phenotypic change in MRSA, and whether STX photolysis could reduce the resistance development for conventional antibiotics, a serial passage study for each treatment scenario was conducted. The initial generation (Day 1) used in this study was stationary-phase MRSA. The sample was prepared, washed and resuspended in 1×PBS at its original concentration. An aliquot (5 μl) of the MRSA suspension was transferred onto a glass cover slide as a droplet of ˜5 mm in diameter with or without 10 min laser treatment (1 cm diameter illumination area, 120 mW). The droplets were then collected and resuspended into 5 ml of TSB medium (1:1000 dilution) with an estimated cell concentration of 10^5 CFU/ml. To study resistance development or selection induced by laser treatment alone, three groups were included: a group without laser treatment (SPO), a group with laser treatment (SPL1), and another independent group with laser treatment as a duplicate (SPL2). To study resistance development induced by antibiotic treatment alone and laser plus antibiotic treatment, three groups were included for each antibiotic: antibiotic alone-treated group (SPA0), laser plus antibiotic-treated group (SPLA1), and another laser plus antibiotic-treated group as another independent serial passage (SPLA2). For SPO, SPL1, and SPL2, 200 μl of bacterial suspension was directly transferred to each well of a 96-well plate, with three replicates conducted for each group. For SPA0, SPLA1, and SPLA2, 200 μl of bacterial suspension was transferred into the first dilution row of a 96-well plate with supplemented antibiotics at a desired starting concentration, whereas 100 μl of bacterial suspension was transferred to the rest dilution rows. […] Three replicates were applied for each group. These well plates were incubated in a shaker at 37° C. and 200 rpm for 18 hours followed by OD600 measurement by a plate reader. After MICs recording for each group, the well plates were continuously incubated in the shaker for 3 days in total. On Day 4, 200 μl of bacterial sample from each group was collected, washed, and resuspended in 1×PBS at its original concentration used as new inoculum for the next passage following the same protocol as described above. Samples for SPA0, SPLA1, and SPLA2 groups were collected from wells supplemented with sub-MIC antibiotic. Samples for SPO, SPL1, and SPL2 groups were also collected from the well plates. […] Serial passage for all groups were performed for […] with 16 generations in total. Raman spectroscopy was then applied to monitor STX expression level in groups of interest after the entire serial passage experiment. The protocol is detailed as below: 100 μl of ˜400 μl stored bacterial culture was collected, spun down with the supernatant being removed, then resuspended into 5 μl 1×PBS as high-concentration bacterial solution (20 times concentrated). An aliquot (1 μl) was transferred and then sandwiched between two glass cover slides for STX quantification by resonance Raman spectroscopy.

Experiment [3] has as its system stationary-phase MRSA. In words: Time-killing assay in PBS with or without pulsed laser (CFU enumeration). The conditions noted are these: for synergy of laser treatment with antibiotic against MRSA: 5 min laser plus 10 MIC antibiotic (FIG. 32). The experiment is classed as cell-based, S. aureus. The protocol:
To quantify viable bacterial cells, CFU experiments were performed. 100 μl of sample analyte was transferred into a 96-well plate and then three or four ten-fold serial dilution achieved by transferring 20 μl bacterial culture into 180 μl 1×PBS in the next dilution row. After serial dilution, an aliquot (4 μl) from each well was spotted onto sterile TSA plates. After incubating the plates overnight (˜18 hours) at 37° C., the colonies were enumerated, and cell number was calculated in CFU/ml. For each CFU enumeration experiment, three independent replicates were applied.
Stationary-phase MRSA was prepared, washed and resuspended in 1×PBS at two-times of its original concentration. […] After laser treatment, the droplets were resuspended into 200 μl of 1×PBS (1:40 dilution) supplemented with antibiotics at different concentrations in a mini centrifuge tube (89166-278, VWR international). For example, daptomycin was added into MRSA solution after laser treatment at desired concentration of 0×MIC, 5×MIC, 10×MIC, 30×MIC, or 100×MIC supplemented with 50 μg/ml CaCl2). Corresponding groups without laser treatment were also conducted for comparison. These tubes were incubated within an orbital incubator (37° C., 200 rpm) for different incubation time. At each specific time point, 40 μl of aliquot from each group was transferred to a 96-well plate for follow-up CFU enumerating assay. In the case of tobramycin, additional antibiotic washing by 1×PBS was performed before the CFU experiment to avoid antibiotic interference. For time-killing assay in fresh human whole blood, similar protocol was followed as above, except that 1×PBS was replaced by fresh human whole blood and the initial stationary-phase MRSA solution was diluted by ten times with a concentration of ˜10^7 CFU/ml.

In experiment [4] the test system is stationary-phase MRSA. In words: Gentamicin-Texas red intracellular uptake assay. The conditions noted are these: gentamicin conjugated with Texas red, confocal fluorescence. The experiment is classed as cell-based, S. aureus. The protocol: To study laser-mediated intracellular uptake of gentamicin (a representative of aminoglycoside), gentamicin was conjugated with a fluorescent dye, Texas-red, to form gentamicin-Texas red. Briefly, 10 mg of gentamicin was dissolved into 1 ml of 0.1 M sodium bicarbonate buffer (58761-500ML, Sigma Aldrich). 10 mg/ml of Texas red-X succinimidyl ester (T6134, Thermo Fisher Scientific) was added to the gentamicin solution slowly drop by drop. Then the mixed solution was stirred at room temperature for 1 hour. Gentamicin-Texas red was purified through sufficient dialysis against 0.1 M sodium bicarbonate buffer in a dialysis sack (Slide-A-Lyzer G2 Dialysis Cassettes, 2K MWCo, 15 mL, 87719, Thermao Fisher Scientific), and harvested through lyophilization (Labconco). […] After treatment, bacterial droplet was collected into 985 μl of sterile 1×PBS, and then add 10 μl of 1 mg/ml Gentamicin-Texas red. Mixed solution was incubated at 37° C. for 30 min with a shaking speed of 200 rpm. After incubation, MRSA pellets were harvested through washing with sterile 1×PBS twice and then fixed with 10% formalin. […] Quantitative analysis of fluorescence emission intensity from individual MRSA cells was conducted and allocated among groups with different laser treatment time.

Where [5] appears, read: read-out: MIC after 48-day serial passage, sub-MIC antibiotic alone.

Converted amounts (≈) assume the structure as drawn. “Also recorded” adds a separate entry of the source. Like-named read-outs stand apart in the source and are kept apart here.

In the case of `CC[C@H]1OC(=O)[C@H](C)[C@@H](O[C@H]2C[C@@](C)(OC)[C@@H](O)[C@H](C)O2)[C@H](C)[C@@H](O[C@@H]2O[C@H](C)C[C@H](N(C)C)[C@H]2O)[C@](C)(O)C[C@@H](C)C(=O)[C@H](C)[C@@H](O)[C@]1(C)O` [Erythromycin], the MIC in experiment [1] (Staphylococcus aureus) amounted to 64 µg/mL (≈ 87.2 µM).
Regarding `CC1COc2c(N3CCN(C)CC3)c(F)cc3c(=O)c(C(=O)O)cn1c23` (stereo not drawn) [Ofloxacin, ofloxacin], the MIC in experiment [1] (Staphylococcus aureus) amounted to 0.5 µg/mL (≈ 1.38 µM); with MRSA (setting [5]), 128 µg/mL (≈ 354 µM). Besides, the “fold reduction of lowest concentration completely inhibiting MRSA growth within 18 hours, with laser treatment” value in the experiment with stationary-phase MRSA [2] was found to be 2 fold.
Consider `Cc1onc(-c2ccccc2)c1C(=O)N[C@@H]1C(=O)N2[C@@H]1SC(C)(C)[C@@H]2C(=O)O` [Oxacillin, oxacillin], for which the MIC in experiment [1] (Staphylococcus aureus, MRSA NRS384 (MRSA USA 300), N = 3, read-out: MIC) was determined as 8 µg/mL (≈ 19.9 µM). Further, the “synergy of laser treatment with antibiotic against MRSA” value (from here on “synergy of laser treatment”) with stationary-phase MRSA [3] is given as “synergy; also recorded: very obvious synergy”. Moreover, the “antibiotic concentration re-sensitized by laser treatment” value in the experiment on stationary-phase MRSA [2] (laser treatment plus oxacillin) came out at 1 µg/mL.
Turning to `CO/N=C(\C(=O)N[C@@H]1C(=O)N2C(C(=O)O)=C(COC(C)=O)CS[C@H]12)c1csc(N)n1` [cefotaxime], the “synergy of laser treatment” value in the experiment on stationary-phase MRSA [3] was “very obvious synergy”; with stationary-phase MRSA [3] (listed as cetotaxine), “synergy”.
With `O=C(O)c1cn(C2CC2)c2cc(N3CCNCC3)c(F)cc2c1=O` [ciprofloxacin], the “synergy of laser treatment” value with stationary-phase MRSA [3] is reported as “synergy; also recorded: very obvious synergy”. For the same compound, the “resistance development with laser treatment” value (shortened to “resistance development”) in the experiment on MRSA is listed as “no resistance”. Besides, the MIC with MRSA (setting [5]) was 128 µg/mL (≈ 386 µM); in the experiment with MRSA (read-out: MIC over/after 48-day serial passage, sub-MIC antibiotic plus 10 min laser treatment), no more than 2 µg/mL.
Consider `CC(=O)NC[C@H]1CN(c2ccc(N3CCOCC3)c(F)c2)C(=O)O1` [linezolid], for which the “fold reduction of lowest concentration completely inhibiting MRSA growth within 18 hours, with laser treatment” value in the experiment on stationary-phase MRSA [2] is recorded as 8 fold. Also, in the experiment with MRSA, the “resistance development” value is given as “resistance inhibition”.
For the compound `CN(C/C=C/c1ccccc1)Cc1cccc2ccccc12` [naftifine], the “second order bleaching constant τ2” value with STX in MRSA (naftifine-treated MRSA, τ1=∞, wild-type MRSA 0.16±0.01 s) was determined as 0.39 ± 0.07 s. The “τ2 of naftifine-treated MRSA relative to wild-type MRSA” value in the experiment on STX in MRSA (times longer than wild-type MRSA) worked out at 2.5 times.
With `NC[C@H]1O[C@H](O[C@H]2[C@H](O)[C@@H](O[C@H]3O[C@H](CO)[C@@H](O)[C@H](N)[C@H]3O)[C@H](N)C[C@@H]2N)[C@H](N)C[C@@H]1O` [tobramycin], the “resistance development” value with MRSA is “resistance inhibition”.
The compound gentamicin gave an MIC in experiment [1] (MRSA NRS384 (MRSA USA 300), N = 3) of 8 µg/mL. In addition, the “synergy of laser treatment” value in the experiment with stationary-phase MRSA [3] was “synergy; also recorded: very obvious synergy”. Further, in the experiment on stationary-phase MRSA [3] (pulsed laser treatment combined with antibiotic at 10 MIC (FIG. 32)), the MRSA reduction entry is recorded as “more than 2 log”. Further, in the experiment with MRSA, the “resistance development” value is given as “Delayed resistance development”. The “intracellular uptake with laser treatment vs untreated” value in the experiment on stationary-phase MRSA [4] is recorded as “significantly more”.
In the case of ramoplanin, in the experiment with MRSA, the “resistance development” value is recorded as “decreased resistance development is not shown”.
